Laboratory results reported in ChEMBL document CHEMBL3351531, “Scaffold hopping of sampangine: discovery of potent antifungal lead compound against Aspergillus fumigatus and Cryptococcus neoformans” (Bioorg Med Chem Lett, 2014).
Values after ≈ are worked out from the molar mass of the structure shown.

Tests used:
Candida parapsilosis = test: Antifungal activity against Candida parapsilosis after 24 hrs by serial dilution method; type: functional; conditions: Lodderomyces parapsilosis
Aspergillus fumigatus = test: Antifungal activity against Aspergillus fumigatus after 7 days by serial dilution method; type: functional; conditions: 168 h
Cryptococcus neoformans = test: Antifungal activity against Cryptococcus neoformans after 72 hrs by serial dilution method; type: functional
Candida albicans = test: Antifungal activity against Candida albicans after 24 hrs by serial dilution method; type: functional
Nakaseomyces glabratus = test: Antifungal activity against Candida glabrata after 24 hrs by serial dilution method; type: functional
Trichophyton rubrum = test: Antifungal activity against Trichophyton rubrum by serial dilution method; type: functional
Nannizzia gypsea = test: Antifungal activity against Microsporum gypseum by serial dilution method; type: functional
[1] = Kinetic solubility of the compound in PBS buffer at pH 7.4; type: physicochemical; conditions: read-out: Kinetic_solubility

SMILES	MIC80 (Candida parapsilosis) [µg/mL]	MIC80 (Aspergillus fumigatus) [µg/mL]	MIC80 (Cryptococcus neoformans) [µg/mL]	MIC80 (Candida albicans) [µg/mL]	MIC80 (Nakaseomyces glabratus) [µg/mL]	MIC80 (Trichophyton rubrum) [µg/mL]	MIC80 (Nannizzia gypsea) [µg/mL]	solubility kinetic [1] [µg/mL]
CC1(C)CC2=C(O1)C(=O)c1nccc3ccnc2c13	> 64	1 (≈ 3.96 µM)	2 (≈ 7.93 µM)	> 64	0.125 (≈ 0.495 µM)	8 (≈ 31.7 µM)	> 64	27 (≈ 107 µM)
O=C1c2ccsc2-c2nccc3ccnc1c23	8 (≈ 33.6 µM)	1 (≈ 4.2 µM)	0.25 (≈ 1.05 µM)	4 (≈ 16.8 µM)	4 (≈ 16.8 µM)	2 (≈ 8.39 µM)	2 (≈ 8.39 µM)	48 (≈ 201 µM)
Cn1cc2c(c1)-c1nccc3ccnc(c13)C2=O	> 64	> 64	> 64	> 64	> 64	> 64	> 64	17 (≈ 72.3 µM)
O=C1c2occc2-c2nccc3ccnc1c23	> 64	32 (≈ 144 µM)	16 (≈ 72 µM)	32 (≈ 144 µM)	32 (≈ 144 µM)	8 (≈ 36 µM)	16 (≈ 72 µM)	
O=C1c2ccoc2-c2nccc3ccnc1c23	> 64	32 (≈ 144 µM)	8 (≈ 36 µM)	32 (≈ 144 µM)	64 (≈ 288 µM)	8 (≈ 36 µM)	16 (≈ 72 µM)	
Cn1ccc2c1C(=O)c1nccc3ccnc-2c13	> 64	64 (≈ 272 µM)	8 (≈ 34 µM)	64 (≈ 272 µM)	32 (≈ 136 µM)	16 (≈ 68 µM)	> 64	22 (≈ 93.5 µM)
O=C1c2cc(Br)sc2-c2nccc3ccnc1c23	64 (≈ 202 µM)	4 (≈ 12.6 µM)	4 (≈ 12.6 µM)	8 (≈ 25.2 µM)	4 (≈ 12.6 µM)	2 (≈ 6.31 µM)	1 (≈ 3.15 µM)	
O=C1c2ccsc2-c2nccc3c(Br)cnc1c23	16 (≈ 50.4 µM)	8 (≈ 25.2 µM)	4 (≈ 12.6 µM)	4 (≈ 12.6 µM)	4 (≈ 12.6 µM)	2 (≈ 6.31 µM)	0.5 (≈ 1.58 µM)	
O=C1c2ccsc2-c2nccc3c(Cl)cnc1c23	> 64	2 (≈ 7.33 µM)	0.5 (≈ 1.83 µM)	32 (≈ 117 µM)	0.5 (≈ 1.83 µM)	2 (≈ 7.33 µM)	0.125 (≈ 0.458 µM)	
O=C1c2cc(Cl)sc2-c2nccc3c(Cl)cnc1c23	> 64	> 64	> 64	32 (≈ 104 µM)	> 64	> 64	8 (≈ 26 µM)	
CN1CCN(c2cnc3c4c(nccc24)-c2sccc2C3=O)CC1	> 64	> 64	64 (≈ 190 µM)	> 64	64 (≈ 190 µM)	> 64	> 64	
COc1cnc2c3c(nccc13)-c1sccc1C2=O	> 64	> 64	> 64	> 64	> 64	> 64	> 64	
O=C1c2ccsc2-c2nc(-c3ccccc3)cc3ccnc1c23	> 64	> 64	4 (≈ 12.7 µM)	32 (≈ 102 µM)	> 64	16 (≈ 50.9 µM)	> 64	
O=C1c2ccsc2-c2nc(-c3cccnc3)cc3ccnc1c23	> 64	> 64	32 (≈ 101 µM)	32 (≈ 101 µM)	> 64	> 64	32 (≈ 101 µM)	
Cc1ccccc1-c1cc2ccnc3c2c(n1)-c1sccc1C3=O	> 64	> 64	> 64	32 (≈ 97.4 µM)	> 64	32 (≈ 97.4 µM)	> 64	
CC(=O)Nc1ccc(-c2cc3ccnc4c3c(n2)-c2sccc2C4=O)cc1	> 64	> 64	> 64	32 (≈ 86.2 µM)	> 64	> 64	> 64	
OC(Cn1cncn1)(Cn1cncn1)c1ccc(F)cc1F [FLUCONAZOLE]	1 (≈ 3.27 µM)	> 64	0.25 (≈ 0.816 µM)	0.5 (≈ 1.63 µM)	0.25 (≈ 0.816 µM)	0.5 (≈ 1.63 µM)	16 (≈ 52.2 µM)	
O=C1c2ccccc2-c2nccc3ccnc1c23 [SAMPANGINE]	4 (≈ 17.2 µM)	16 (≈ 68.9 µM)	2 (≈ 8.61 µM)	0.5 (≈ 2.15 µM)	0.125 (≈ 0.538 µM)	16 (≈ 68.9 µM)	> 64	12.6 (≈ 54.3 µM)
